In ChEMBL document CHEMBL3885881, “DrugMatrix”:

Species: Rattus norvegicus
Assay: DrugMatrix - Regimen: Daily Repeat
Format: toxicity, organism-based, Sprague-Dawley
Set-up: regimen Daily Repeat, gender Male, age 6-8 weeks
Conditions: in vivo, po, […], route oral GAVAGE; for ABSOLUTE BASOPHIL / ABSOLUTE EOSINOPHIL / ABSOLUTE LYMPHOCYTE / ABSOLUTE MONOCYTE / ABSOLUTE SEGMENTED NEUTROPHIL / BASOPHIL / EOSINOPHIL / ERYTHROCYTE COUNT / HEMATOCRIT / HEMOGLOBIN / LEUKOCYTE COUNT / LYMPHOCYTE / MEAN CORPUSCULAR HEMOGLOBIN / MEAN CORPUSCULAR HEMOGLOBIN CONCENTRATION / MEAN CORPUSCULAR VOLUME / MONOCYTE / NEUTROPHIL / NUCLEATED RED BLOOD CELLS / PLATELET COUNT: tissue Blood; for ALANINE AMINOTRANSFERASE / ALBUMIN / ALKALINE PHOSPHATASE / ASPARTATE AMINOTRANSFERASE / BLOOD UREA NITROGEN / CARBON DIOXIDE / CHLORIDE / CHOLESTEROL / CREATINE PHOSPHOKINASE / CREATININE / GLUCOSE / LACTATE DEHYDROGENASE / LIPASE / PHOSPHORUS / POTASSIUM / SODIUM / TOTAL BILIRUBIN / TOTAL PROTEIN / URIC ACID: tissue Plasma
[1] = 30 mg/kg, dose level Low, time 7 day
[2] = 60 mg/kg, 72 h, dose level High, time 3 day
[3] = 60 mg/kg, dose level High, time 7 day

Compound: S=C=Nc1cccc2ccccc12 [1-NAPHTHYLISOTHIOCYANATE]
- ABSOLUTE BASOPHIL [1]: 0 CELLS/uL
- ABSOLUTE EOSINOPHIL [1]: 0 CELLS/uL
- ABSOLUTE LYMPHOCYTE [1]: 18648 CELLS/uL
- ABSOLUTE MONOCYTE [1]: 658.33 CELLS/uL
- ABSOLUTE SEGMENTED NEUTROPHIL [1]: 6027 CELLS/uL
- BASOPHIL [1]: 0%
- EOSINOPHIL [1]: 0%
- ERYTHROCYTE COUNT [1]: 5.54 x10E6/uL
- HEMATOCRIT [1]: 31.6%
- HEMOGLOBIN [1]: 13.02 G/DL
- LEUKOCYTE COUNT [1]: 25.33 x10E3/uL
- LYMPHOCYTE [1]: 74.17%
- MEAN CORPUSCULAR HEMOGLOBIN [1]: 23.55 pg
- MEAN CORPUSCULAR HEMOGLOBIN CONCENTRATION [1]: 41.2 G/DL
- MEAN CORPUSCULAR VOLUME [1]: 57.07 fL
- MONOCYTE [1]: 2.33%
- NEUTROPHIL [1]: 23.5%
- NUCLEATED RED BLOOD CELLS [1]: 0 /100WBC
- PLATELET COUNT [1]: 1468.17 x10E3/uL
- ALANINE AMINOTRANSFERASE [1]: 195.83 u/L
- ALBUMIN [1]: 3.78 G/DL
- ALKALINE PHOSPHATASE [1]: 515.67 u/L
- ASPARTATE AMINOTRANSFERASE [1]: 302 u/L
- BLOOD UREA NITROGEN [1]: 11.83 mg/dL
- CARBON DIOXIDE [1]: 27.67 mmol/L
- CHLORIDE [1]: 96.67 MEQ/L
- CHOLESTEROL [1]: 137 mg/dL
- CREATINE PHOSPHOKINASE [1]: 291.83 u/L
- CREATININE [1]: 0.18 mg/dL
- GLUCOSE [1]: 98.33 mg/dL
- LACTATE DEHYDROGENASE [1]: 164.67 u/L
- LIPASE [1]: 11 u/L
- PHOSPHORUS [1]: 8.68 mg/dL
- POTASSIUM [1]: 6.99 MEQ/L
- SODIUM [1]: 139.38 MEQ/L
- TOTAL BILIRUBIN [1]: 3.15 mg/dL
- TOTAL PROTEIN [1]: 6.52 G/DL
- URIC ACID [1]: 0.93 mg/dL
- ABSOLUTE BASOPHIL [2]: 0 CELLS/uL
- ABSOLUTE EOSINOPHIL [2]: 24.67 CELLS/uL
- ABSOLUTE LYMPHOCYTE [2]: 8862.67 CELLS/uL
- ABSOLUTE MONOCYTE [2]: 317.33 CELLS/uL
- ABSOLUTE SEGMENTED NEUTROPHIL [2]: 2312 CELLS/uL
- BASOPHIL [2]: 0%
- EOSINOPHIL [2]: 0.33%
- ERYTHROCYTE COUNT [2]: 6.41 x10E6/uL
- HEMATOCRIT [2]: 39.08%
- HEMOGLOBIN [2]: 14.75 G/DL
- LEUKOCYTE COUNT [2]: 11.52 x10E3/uL
- LYMPHOCYTE [2]: 77%
- MEAN CORPUSCULAR HEMOGLOBIN [2]: 23 pg
- MEAN CORPUSCULAR HEMOGLOBIN CONCENTRATION [2]: 37.77 G/DL
- MEAN CORPUSCULAR VOLUME [2]: 60.88 fL
- MONOCYTE [2]: 2.5%
- NEUTROPHIL [2]: 20.17%
- NUCLEATED RED BLOOD CELLS [2]: 0.17 /100WBC
- PLATELET COUNT [2]: 1204.67 x10E3/uL
- ALANINE AMINOTRANSFERASE [2]: 183.5 u/L
- ALBUMIN [2]: 3.77 G/DL
- ALKALINE PHOSPHATASE [2]: 566.83 u/L
- ASPARTATE AMINOTRANSFERASE [2]: 458.5 u/L
- BLOOD UREA NITROGEN [2]: 11.67 mg/dL
- CARBON DIOXIDE [2]: 28.67 mmol/L
- CHLORIDE [2]: 94.67 MEQ/L
- CHOLESTEROL [2]: 312 mg/dL
- CREATINE PHOSPHOKINASE [2]: 420.5 u/L
- CREATININE [2]: 0.28 mg/dL
- GLUCOSE [2]: 125.17 mg/dL
- LACTATE DEHYDROGENASE [2]: 229.33 u/L
- LIPASE [2]: 12.5 u/L
- PHOSPHORUS [2]: 8.75 mg/dL
- POTASSIUM [2]: 6.43 MEQ/L
- SODIUM [2]: 140.67 MEQ/L
- TOTAL BILIRUBIN [2]: 3.47 mg/dL
- TOTAL PROTEIN [2]: 6.93 G/DL
- URIC ACID [2]: 0.85 mg/dL
- ABSOLUTE BASOPHIL [3]: 0 CELLS/uL
- ABSOLUTE EOSINOPHIL [3]: 0 CELLS/uL
- ABSOLUTE LYMPHOCYTE [3]: 17693.83 CELLS/uL
- ABSOLUTE MONOCYTE [3]: 897.83 CELLS/uL
- ABSOLUTE SEGMENTED NEUTROPHIL [3]: 12275 CELLS/uL
- BASOPHIL [3]: 0%
- EOSINOPHIL [3]: 0%
- ERYTHROCYTE COUNT [3]: 5.43 x10E6/uL
- HEMATOCRIT [3]: 31.22%
- HEMOGLOBIN [3]: 12.83 G/DL
- LEUKOCYTE COUNT [3]: 30.87 x10E3/uL
- LYMPHOCYTE [3]: 60.83%
- MEAN CORPUSCULAR HEMOGLOBIN [3]: 23.63 pg
- MEAN CORPUSCULAR HEMOGLOBIN CONCENTRATION [3]: 41.02 G/DL
- MEAN CORPUSCULAR VOLUME [3]: 57.68 fL
- MONOCYTE [3]: 2.67%
- NEUTROPHIL [3]: 36.5%
- NUCLEATED RED BLOOD CELLS [3]: 0 /100WBC
- PLATELET COUNT [3]: 1574.83 x10E3/uL
- ALANINE AMINOTRANSFERASE [3]: 179.83 u/L
- ALBUMIN [3]: 3.78 G/DL
- ALKALINE PHOSPHATASE [3]: 516 u/L
- ASPARTATE AMINOTRANSFERASE [3]: 418 u/L
- BLOOD UREA NITROGEN [3]: 12.33 mg/dL
- CARBON DIOXIDE [3]: 26.67 mmol/L
- CHLORIDE [3]: 94 MEQ/L
- CHOLESTEROL [3]: 384.5 mg/dL
- CREATINE PHOSPHOKINASE [3]: 339.67 u/L
- CREATININE [3]: 0.1 mg/dL
- GLUCOSE [3]: 96.33 mg/dL
- LACTATE DEHYDROGENASE [3]: 286.67 u/L
- LIPASE [3]: 12.17 u/L
- PHOSPHORUS [3]: 8.75 mg/dL
- POTASSIUM [3]: 6.62 MEQ/L
- SODIUM [3]: 137.88 MEQ/L
- TOTAL BILIRUBIN [3]: 8.2 mg/dL
- TOTAL PROTEIN [3]: 6.48 G/DL
- URIC ACID [3]: 0.87 mg/dL
